In patent publication US12643879B2, “Functionalized heterocyclic compounds as modulators of stimulator of interferon genes (STING)” (RYVU THERAPEUTICS S.A., priority 2019, dated 2026):
Counter-ions that a name gives are not always drawn. Like-named read-outs stand apart in the source and are kept apart here.

Tests used:
human STING = human STING (Homo sapiens, UniProt Q86WV6); assay: Fluorescence Thermal Shift assay (binding to STING); conditions: STING 0.1 mg/mL, SyproOrange, 25 to 99° C.
Method: Compounds, constructs and conjugates of the present invention were tested for binding to human STING in Fluorescence Thermal Shift assay. STING was preincubated with the compounds for 20 minutes in 50 mM Hepes, 150 mM NaCl, pH 7.5 in 15 or 16 μl volume, following by adding 4 μl of SyproOrange dye dilution (ThermoFisher, cat no. S-6651). Final STING concentration was 0.1 mg/mL. Thermal unfolding was performed in Real-Time PCR QuantStudio 6 Flex System (Applied Biosystems), from 25 to 99° C., with continuous ramp mode and ramp rate 0.033° C./s. The data were analyzed using Protein Thermal Shift Software (ThermoFisher).

[1] = test system: interferon regulatory factor (IRF) pathway in THP-1 dual cells; assay: THP-1 Dual reporter assay, IRF pathway (luciferase); type: cell-based; conditions: Homo sapiens, THP1-Dual, read-out: THP1 Dual EC50 (μM) IRF
Procedure, shortened: (§1)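 Dual-reporter THP-1 cells treated 18 h with STING agonist; secreted luciferase (IRF) and SEAP (NF-κB) quantified from medium by luminescence and colorimetric absorbance, respectively.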

[2] = test system: NF-κB pathway in THP-1 dual cells; assay: THP-1 Dual reporter assay, NF-κB pathway (SEAP); type: cell-based; conditions: Homo sapiens, THP1-Dual, read-out: THP1 Dual EC50 (μM) NFkB
Procedure, shortened: as §1

[3] = 18 h stimulation, absorbance at 630 or 655 nm

Chain of human STING (Q86WV6 whole entry H232R): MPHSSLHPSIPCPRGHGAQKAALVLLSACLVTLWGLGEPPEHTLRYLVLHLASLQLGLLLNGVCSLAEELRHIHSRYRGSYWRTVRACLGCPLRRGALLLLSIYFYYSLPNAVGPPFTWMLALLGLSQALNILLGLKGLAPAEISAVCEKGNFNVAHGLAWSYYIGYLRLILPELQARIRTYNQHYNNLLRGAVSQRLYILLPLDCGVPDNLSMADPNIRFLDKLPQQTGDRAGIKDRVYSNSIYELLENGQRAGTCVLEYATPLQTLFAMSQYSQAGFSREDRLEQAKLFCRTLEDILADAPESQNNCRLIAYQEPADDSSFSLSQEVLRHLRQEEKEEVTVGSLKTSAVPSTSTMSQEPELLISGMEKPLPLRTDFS

EC50 ([1]; 18 h stimulation, luminescence) [µM] | EC50 [2, 3] [µM] | Compound | hSTING FTS binding assay (ΔT C. °) (human STING) | EC50 ([1]; 18 h) [µM] | EC50 ([2]; 18 h) [µM]
 |  | Cc1ccc(N2CCC[C@H](N(Cc3ccnc(C)c3)Cc3cn(C4CC4)c4cc(N5CC[C@@H](N)C(F)(F)C5)c(F)cc4c3=O)C2)cn1.Cl (single isomer, unassigned) [Example 56] | +++ (+++=ΔTm ≥20° C.) |  | 
 |  | Cc1cc(CN(Cc2cn(C(C)C)c3cc(F)c(F)cc3c2=O)[C@H]2CCCN(c3ccc(N)nc3)C2)ccn1.Cl [Example 24, 3-({[(3)-1-(6-aminopyridin-3-yl)piperidin-3-yl][(2-methylpyridin-4-yl)methyl]amino}methyl)-6,7-difluoro-1-(propan-2-yl)-1,4-dihydroquinolin-4-one hydrochloride] | +++ (+++=ΔTm ≥20° C.) |  | 
< 1 | < 1 | Cc1ccc(N2CCC[C@H](N(Cc3ccnc(C)c3)Cc3cn(C4CC4)c4cc(-n5cnc(C(N)=O)c5)c(F)cc4c3=O)C2)cn1 [Example 64, 1-[1-Cyclopropyl-6-fluoro-3-({[(3S)-1-(6-methylpyridin-3-yl)piperidin-3-yl][(2-methylpyridin-4-yl)methyl]amino}methyl)-4-oxo-1,4-dihydroquinolin-7-yl]-1H-imidazole-4-carboxamide] |  |  | 
< 1 | < 1 | Cc1cc(CN(Cc2cn(C3CC3)c3cc(OCCO)c(F)cc3c2=O)[C@H]2CCCN(c3cncc(F)c3)C2)ccn1 [Example 90, 1-cyclopropyl-6-fluoro-3-({[(3S)-1-(5-fluoropyridin-3-yl)piperidin-3-yl][(2-methylpyridin-4-yl)methyl]amino}methyl)-7-(2-hydroxyethoxy)-1,4-dihydroquinolin-4-one hydrochloride] |  |  | 
< 1 | < 1 | Cc1cc(CN(Cc2cn(C3CC3)c3cc(N4CCC[C@H](O)C4)c(F)cc3c2=O)[C@H]2CCCN(c3cnccn3)C2)ccn1 [Example 98, 1-cyclopropyl-6-fluoro-7-[(3S)-3-hydroxypiperidin-1-yl]-3-({[(2-methylpyridin-4-yl)methyl][(3S)-1-(pyrazin-2-yl)piperidin-3-yl]amino}methyl)-1,4-dihydroquinolin-4-one hydrochoride] |  |  | 
< 1 | < 1 | C#CCOCCOCCOCCOCCOCCC(=O)Nc1ccc(CNC(=O)OCCOc2cc3c(cc2F)c(=O)c(CN(Cc2ccnc(C)c2)[C@H]2CCCN(c4cccnc4)C2)cn3C2CC2)cc1 [Example 84A, 2-{[1-cyclopropyl-6-fluoro-3-({[(2-methylpyridin-4-yl)methyl][(3S)-1-(pyridin-3-yl)piperidin-3-yl]amino}methyl)-4-oxo-1,4-dihydroquinolin-7-yl]oxy}ethyl N-{[4-(4,7,10,13,16-pentaoxanonadec-18-ynamido)phenyl]methyl}carbamate] |  |  | 
1 to 10 | 1 to 10 | Cc1ccc(N2CCC[C@H](N(Cc3ccnc(C)c3)Cc3cn(C4CC4)c4cc(OCCN(C)C(=O)CCOCCOCCOCCOCCOCCOCCOCCN)c(F)cc4c3=O)C2)cn1 [Example 11D, 1-amino-N-(2-{[1-cyclopropyl-6-fluoro-3-({[(3S)-1-(6-methylpyridin-3-yl)piperidin-3-yl][(2-methylpyridin-4-yl)methyl]amino}methyl)-4-oxo-1,4-dihydroquinolin-7-yl]oxy}ethyl)-N-methyl-3,6,9,12,15,18,21-heptaoxatetracosan-24-amide] |  |  | 
 |  | Cc1ccc(N2CCC[C@H](N(Cc3ccnc(C)c3)Cc3cn(C4CC4)c4cc(NC(=O)CN)c(F)cc4c3=O)C2)cn1 [Example 25, 2-amino-N-[1-cyclopropyl-6-fluoro-3-({[(3S)-1-(6-methylpyridin-3-yl)piperidin-3-yl][(2-methylpyridin-4-yl)methyl]amino}methyl)-4-oxo-1,4-dihydroquinolin-7-yl]acetamide] | +++ (+++=ΔTm ≥20° C.) |  | 
< 1 | < 1 | Cc1ccc(N2CCC[C@H](N(Cc3ccnc(C)c3)Cc3cn(C4CC4)c4cc(N5CCC(CO)C5)c(F)cc4c3=O)C2)cn1 (stereo partly drawn) [Example 79, 1-cyclopropyl-6-fluoro-7-[3-(hydroxymethyl)pyrrolidin-1-yl]-3-({[(3S)-1-(6-methylpyridin-3-yl)piperidin-3-yl][(2-methylpyridin-4-yl)methyl]amino}methyl)-1,4-dihydroquinolin-4-one hydrochloride] |  |  | 
< 1 | < 1 | Cc1cc(CN(Cc2cn(C3CC3)c3cc(OCCO)c(F)cc3c2=O)[C@H]2C[C@H](F)CN(c3cccnc3)C2)ccn1 [Example 89, 1-cyclopropyl-6-fluoro-3-({[(3S,5S)-5-fluoro-1-(pyridin-3-yl)piperidin-3-yl][(2-methylpyridin-4-yl)methyl]amino}methyl)-7-(2-hydroxyethoxy)-1,4-dihydroquinolin-4-one hydrochloride] |  |  | 
< 1 | < 1 | C#CCOCCOCCOCCOCCOCCC(=O)Nc1ccc(COC(=O)N(C)CCOc2cc3c(cc2F)c(=O)c(CN(Cc2ccnc(C)c2)[C@H]2CCCN(c4ccc(C)nc4)C2)cn3C2CC2)cc1 [Example 11F, [4-(4,7,10,13,16-pentaoxanonadec-18-ynamido)phenyl]methyl N-(2-{[1-cyclopropyl-6-fluoro-3-({[(3S)-1-(6-methylpyridin-3-yl)piperidin-3-yl][(2-methylpyridin-4-yl)methyl]amino}methyl)-4-oxo-1,4-dihydroquinolin-7-yl]oxy}ethyl)-N-methylcarbamate] |  |  | 
1 to 10 | 1 to 10 | Cc1ccc(N2CCC[C@H](N(Cc3ccnc(C)c3)Cc3cn(C4CC4)c4cc(OCCN(C)C(=O)CCOCCOCCOCCC(=O)O)c(F)cc4c3=O)C2)cn1 [Example 11G, 3-[2-(2-{2-[(2-{[1-cyclopropyl-6-fluoro-3-({[(3S)-1-(6-methylpyridin-3-yl)piperidin-3-yl][(2-methylpyridin-4-yl)methyl]amino}methyl)-4-oxo-1,4-dihydroquinolin-7-yl]oxy}ethyl)(methyl)carbamoyl]ethoxy}ethoxy)ethoxy]propanoic acid formate] |  |  | 
 |  | Cc1cc(CN(Cc2cn(C)c3ccccc3c2=O)[C@H]2CCCN(c3cncc(CO)c3)C2)ccn1 [Example 44] |  | > 10 | > 10
< 1 | < 1 | Cc1cc(CN(Cc2cn(C3CC3)c3cc(N4CC[C@H](CO)C4)c(F)cc3c2=O)[C@H]2CCCN(c3cccnc3)C2)ccn1 [Example 87, 1-cyclopropyl-6-fluoro-7-[(3S)-3-(hydroxymethyl)pyrrolidin-1-yl]-3-({[(2-methylpyridin-4-yl)methyl][(3S)-1-(pyridin-3-yl)piperidin-3-yl]amino}methyl)-1,4-dihydroquinolin-4-one hydrochloride] |  |  | 
< 1 | < 1 | Cc1cc(CN(Cc2cn(C3CC3)c3cc(Cl)c(F)cc3c2=O)[C@H]2CCCN(c3ccc(C(N)=O)nc3)C2)ccn1 [Example 103, 5-[(3S)-3-{[(7-Chloro-1-cyclopropyl-6-fluoro-4-oxo-1,4-dihydroquinolin-3-yl)methyl][(2-methylpyridin-4-yl)methyl]amino}piperidin-1-yl]pyridine-2-carboxamide] |  |  | 
1 to 10 | 1 to 10 | Cc1ccc(N2CCC[C@H](N(Cc3ccnc(C)c3)Cc3cn(C4CC4)c4cc(OCCN(C)C(=O)CCOCCOCCOCCN)c(F)cc4c3=O)C2)cn1 [Example 11B, 3-{2-[2-(2-aminoethoxy)ethoxy]ethoxy}-N-(2-{[1-cyclopropyl-6-fluoro-3-({[(3S)-1-(6-methylpyridin-3-yl)piperidin-3-yl][(2-methylpyridin-4-yl)methyl]amino}methyl)-4-oxo-1,4-dihydroquinolin-7-yl]oxy}ethyl)-N-methylpropanamide] |  |  | 

Compound | EC50 ([1]; 18 h stimulation, luminescence) [µM] | EC50 [2, 3] [µM] | hSTING FTS binding assay (ΔT C. °) (human STING) | EC50 ([1]; 18 h) [µM] | EC50 ([2]; 18 h) [µM]
Cc1ccc(N2CCC[C@H](N(Cc3ccnc(C)c3)Cc3cn(C4CC4)c4cc(N5CCC6C(CCN6C(=O)OCc6ccc(NC(=O)[C@H](CCCNC(N)=O)NC(=O)[C@@H](NC(=O)CCOCCOCCOCCN=[N+]=[N-])C(C)C)cc6)C5)c(F)cc4c3=O)C2)cn1 (stereo partly drawn) [Example 68A, {4-[(2S)-2-[(2S)-2-(3-{2-[2-(2-azidoethoxy)ethoxy]ethoxy}propanamido)-3-methyl-butanamido]-5-(carbamoylamino)pentanamido]phenyl}methyl 5-[1-cyclopropyl-6-fluoro-3-({[(3S)-1-(6-methylpyridin-3-yl)piperidin-3-yl][(2-methylpyridin-4-yl)methyl]amino}methyl)-4-oxo-1,4-dihydroquinolin-7-yl]-octahydro-1H-pyrrolo[3,2-c]pyridine-1-carboxylate] | 1 to 10 | > 10 |  |  | 
C#CCOCCOCCOCCOCCOCCC(=O)Nc1ccc(COC(=O)N(C)[C@H]2CCN(c3cc4c(cc3F)c(=O)c(CN(Cc3ccnc(C)c3)[C@H]3CCCN(c5ccc(C)nc5)C3)cn4C3CC3)C2)cc1 [Example 58A, [4-(4,7,10,13,16-pentaoxanonadec-18-ynamido)phenyl]methyl N-[(3S)-1-[1-cyclopropyl-6-fluoro-3-({[(3S)-1-(6-methylpyridin-3-yl)piperidin-3-yl][(2-methylpyridin-4-yl)methyl]amino}methyl)-4-oxo-1,4-dihydroquinolin-7-yl]pyrrolidin-3-yl]-N-methylcarbamate] | < 1 | < 1 |  |  | 
